# According to patent US20240415845A1, “Compositions of Iboga Alkaloids and Methods of Treatment” (priority 2022, published 2024):
# “And” between values parts separate entries of the source, which are not always exact repeats. Equal values may be shown once.
# Key:
# [1] = tested on: special operations veterans with combat and/or blast exposure; experiment: Moral Injury Symptom Scale (MISS); format: in vivo, human
# From the text: A Moral Injury Symptom Scale (MISS) was also used to assess the subjects before and one month after treatment. Moral injury is when one acts in a manner or witnesses behaviors that go against an individual's values and moral beliefs. This may include betrayal by leadership or peers with adverse outcomes. Symptoms include guilt, remorse, shame, disgust, anger, inability to forgive oneself, engaging in self-sabotaging behaviors, such as feeling undeserving, affecting work and relationships, and questioning spirituality. The MISS is a multidimensional measure to assess the severity of moral injury symptoms. Possible score range is 45-450, with higher scores indicating more severe moral injury (Koenig et al., J. Relig Health, 57:249-265 (2018)).
# [2] = orally administered to humans; possibly longer in poor CYP2D6 metabolizers; cited from earlier work
# [3] = tested on: special operations veterans with combat and/or blast exposure; conditions: in vivo
compound,measurement,setting,value
"CCC1CC2CC3c4[nH]c5ccc(OC)cc5c4CCN(C2)C13 (stereo not shown) [ibogaine, Ibogaine]",subjects showing a reduction in moral injury score,[1]; FIG. 6B,88%
same,MISS effect size,[1]; one month after treatment vs baseline,1.14
same,average moral injury symptoms score (MISS),"[1]; one month after treatment, baseline about 220, score range 45-450",about 140
same,half-life,[2],about 7.5 hours
same,"Cognitive Flexibility Composite (average of D-KEFS TMT Condition 4, Color/Word Interference Condition 4, Verbal Fluency Category Switching) score",[3],56.6 ± 5.7 T score and 59.3 ± 5.0 T score
same,"Cognitive Flexibility Composite, effect size D",[3],0.74 and 0.43
same,"Cognitive Inhibition (D-KEFS Color/Word Interference, Condition 3) score",[3],59.9 ± 6.4 T score and 59.9 ± 7.5 T score
same,"Cognitive Inhibition (D-KEFS Color/Word Interference, Condition 3), effect size D",[3],1.22 and 0.62
same,Detection (CPT-3 Detection) score,[3],41.2 ± 8.2 T score and 39.5 ± 7.5 T score
same,"Detection (CPT-3 Detection), effect size D",[3],0.86 and 1.05
same,Phonemic Fluency (D-KEFS Verbal Fluency) score,[3],60.8 ± 10.3 T score and 64.0 ± 10.1 T score
same,"Problem Solving (D-KEFS TT, Total Achievement Score) score",[3],59.1 ± 7.1 T score and 59.5 ± 7.9 T score
same,"Problem Solving (D-KEFS TT, Total Achievement Score), effect size D",[3],0.44 and 0.49
same,Reaction Time (CPT-3 Reaction Time) score,[3],44.1 ± 6.8 T score and 46.4 ± 8.1 T score
same,"Reaction Time (CPT-3 Reaction Time), effect size D",[3],0.52 and 0.29
same,Semantic Fluency (D-KEFS Verbal Fluency) score,[3],60.2 ± 12.2 T score and 63.6 ± 7.8 T score
same,Sustained Attention (CPT-3 Hit Reaction Time Block Change) score,[3],50.8 ± 7.9 T score and 51.2 ± 7.7 T score
same,Verbal Memory (HVLT-R) score,[3],49.0 ± 9.2 T score and 53.1 ± 8.8 T score
same,Visuospatial Memory (BVMT-R) score,[3],58.8 ± 7.1 T score and 58.3 ± 6.6 T score
same,"Visuospatial Memory (BVMT-R), effect size D",[3],0.32 and 0.50
same,"adverse effect on processing speed, individual D-KEFS results",[3],no indication of an adverse effect
same,declines across any neuropsychological performance domain,[3],No declines
same,"executive functioning (inhibition, cognitive flexibility, problem-solving, phonemic fluency, working memory), effect sizes D",[3],0.31-1.22
same,performance changes in language (semantic fluency),[3],No significant performance changes
same,"processing speed, effect sizes D",[3],0.97-1.34
same,"slowing of reaction time, effect sizes D",[3],0.29-0.52
same,"sustained attention accuracy (detection), effect sizes D",[3],0.86-1.05
same,"Processing Speed (PSI, WAIS-IV) score",[3]; iv,59.2 ± 9.7 T score and 61.6 ± 10.7 T score
same,"Processing Speed (PSI, WAIS-IV), effect size D",[3]; iv,0.97 and 1.34
same,"Working Memory (WMI, WAIS-IV) score",[3]; iv,57.0 ± 9.5 T score and 57.6 ± 9.2 T score
same,"Working Memory (WMI, WAIS-IV), effect size D",[3]; iv,0.37 and 0.31
